Counter-ions that a name gives are not always drawn. Like-named read-outs stand apart in the source and are kept apart here.
Assays:
[1] = target: sigma receptor (guinea pig brain crude membrane fraction); test: Sigma receptor binding assay (3H-DTG); settings: inhibition of 3H-DTG binding to guinea pig brain crude membrane fraction, 25° C., 1 hour
Description: Sigma Receptor Binding Assay
(1) Preparation of Receptor
The washing procedure was repeated once more under the same conditions, and the resulting crude membrane fraction was subjected to the assay.
The specific binding and the non-specific binding in the absence of the test compound were determined in the same way as above except for using 50% DMSO solution instead of the test compound and using a 100 μM Haloperidol solution instead of the test compound, respectively.
(3) Determination of Inhibition
The inhibitions of the test compound at individual concentrations were determined from the ratio of the specific binding in the presence of the test compound to the specific binding in the absence thereof. The dose-response curve was regressed according to a logit-log model in which the ratio of the specific binding in the presence of the test compound to the specific binding in the absence thereof was subjected to logit transformation and plotted against the common logarithm value of each concentration.

[2] = target: T1, acetylcholinesterase (rat brain homogenate) (Rattus norvegicus, UniProt P37136); test: biochemical
T1 construct: Using a rat brain homogenate as a source of acetylcholinesterase; from tissue; host or cells: rat brain homogenate
T1 sequence (P37136 32-614): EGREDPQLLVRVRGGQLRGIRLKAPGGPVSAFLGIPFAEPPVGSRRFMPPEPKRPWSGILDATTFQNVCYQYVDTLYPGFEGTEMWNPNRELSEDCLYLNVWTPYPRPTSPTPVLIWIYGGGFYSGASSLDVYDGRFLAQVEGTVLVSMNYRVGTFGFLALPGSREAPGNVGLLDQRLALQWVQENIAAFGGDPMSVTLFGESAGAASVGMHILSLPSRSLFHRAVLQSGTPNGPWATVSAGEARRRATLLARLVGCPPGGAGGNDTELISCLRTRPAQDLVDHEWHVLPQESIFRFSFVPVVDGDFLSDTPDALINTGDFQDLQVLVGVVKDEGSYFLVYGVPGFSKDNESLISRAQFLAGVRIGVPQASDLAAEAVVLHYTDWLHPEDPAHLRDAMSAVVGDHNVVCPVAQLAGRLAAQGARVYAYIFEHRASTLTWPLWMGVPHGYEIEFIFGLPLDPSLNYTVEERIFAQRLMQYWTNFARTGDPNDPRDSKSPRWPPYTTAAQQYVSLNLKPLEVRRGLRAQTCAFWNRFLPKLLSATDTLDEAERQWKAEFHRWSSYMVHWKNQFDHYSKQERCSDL
Description: Inhibitory Effect on Acetylcholinesterase
To DTNB (5,5′-dithiobis(2-nitrobenzoic acid)), acethylthiocholine (as a substrate) and a test compound was added the rat brain homogenate and incubated.

SMILES | IC50 [1] [nM] | IC50 ([2]; rat brain homogenate, acetylthiocholine substrate, DTNB, absorbance at 412 nm, read-out: Acetylcholinesterase inhibition IC50) [nM] | IC50 [2] [nM]
CCOc1cc2c(cc1OCC)C(=O)C(CC1=CCN(Cc3ccccc3)CC1)C2 (stereo not shown) [Example 2, 1-benzyl-4-[(5,6-diethoxy-1-indanon)-2-yl]methyl-1,2,3,6-tetrahydropyridine hydrochloride] | 5 |  | 
CCOc1cc2c(cc1OCC)C(=O)C(F)(CC1=CCN(Cc3ccccc3)CC1)C2 (stereo not shown) [Example 3, 1-benzyl-4-[(5,6-diethoxy-2-fluoro-1-indanon)-2-yl]methyl-1,2,3,6-tetrahydropyridine hydrochloride] | 4.7 | 0.4 | 
COc1cc2c(cc1OC)C(=O)C(CC1=CCN(Cc3ccccc3)CC1)C2 (stereo not shown) [Example 1, 1-benzyl-4-[(5,6-dimethoxy-1-indanon)-2-yl]methyl-1,2,3,6-tetrahydropyridine hydrochloride] |  |  | 4.2

— patent publication US7378425B2, “(1-Indanone)-(1,2,3,6-tetrahydropyridine) compounds” (Eisai R & D Management Co., Ltd., priority 2002, dated 2008)
